In publication PMC10783114, “Establishment of a screening platform based on human coronavirus OC43 for the identification of microbial natural products with antiviral activity” (Microbiology Spectrum, 2023):
Like-named read-outs stand apart in the source and are kept apart here. Non-standard residues stand in square brackets, D forms with d. Residues, ends and D or L forms follow the SMILES beside them. dLac(3-vinyl) = C=CC[C@@H](O)C(=O)O; dHica = CC(C)C[C@@H](O)C(=O)O; NMeV = CN[C@H](C(=O)O)C(C)C; NMeA = CN[C@@H](C)C(=O)O; βAla = NCCC(=O)O

Experiments:
[1] = test system: HCoV-OC43; experiment: Resazurin-based CPE inhibition assay in HCoV-OC43-infected MRC-5 cells; type: cell-based, Human betacoronavirus OC43; conditions: for antiviral activity against HCoV-OC43 infection in MRC-5 cells (in words): tested in both assays (CPE inhibition and HCS)
[2] = test system: HCoV-OC43; experiment: High-content screening assay, anti-OC43 immunostaining of infected MRC-5 cells; type: cell-based, Human betacoronavirus OC43
[3] = test system: HCoV-OC43; experiment: RT-qPCR of extracellular HCoV-OC43 RNA in culture supernatants; type: cell-based, Human betacoronavirus OC43; conditions: 72 h incubation
Method: Viral RNA from supernatants was purified using the Macherey-Nagel Nucleospin RNA Kit. RT-qPCR was performed in a single step using the One-Step TB Green PrimeScript RT-PCR Kit II (Takara Bio). The HCoV-OC43 nucleocapsid gene was amplified with the following primers: the forward primer 5′ […]-3′ and the reverse primer 5′ […]-3′ ([27]). A standard curve was generated with purified HCoV-RNA (Vircell).

[4] = test system: MRC-5 cells; experiment: Resazurin cytotoxicity assay in non-infected MRC-5 cells; conditions: MRC-5 cells
[5] = as above; conditions: human
[6] = test system: MRC-5 cells
[7] = in vitro; conditions: human
[8] = test system: HCoV-OC43; design: method as in PMID 30918074; conditions: mouse model ref 29; cited from earlier work
[9] = test system: MERS; conditions: marmosets infected with MERS ref 35; cited from earlier work
[10] = Betacoronavirus 1, OC43, MRC5, read-out: EC50 (HCS assay)
[11] = CC50, non-infected MRC-5 cells, 96 h incubation, resazurin
[12] = Betacoronavirus 1, MRC5, MRC-5 infected with HCoV-OC43 at 0.1 MOI, 96 h with drug, 5 days post-infection, resazurin readout, read-out: EC50 (CPE inhibition assay)
[13] = Betacoronavirus 1, OC43, MRC5, infected MRC-5, 72 h incubation with drug, 4 days post-infection, read-out: EC50 (HCS assay)

Q: Which “antiviral activity against HCoV-OC43 infection in MRC-5 cells (in words)” value (“antiviral activity … (in words)” below) [1] does the source give for `O=C1OCC(Cc2ccccc2)=C1c1ccccc1` [Gymnoascolide A, gymnoascolide A] here?
A: showed activity

Q: What about the EC50 ([2]; infected MRC-5, 72 h incubation with drug, 4 days post-infection, read-out: EC50 (HCS assay)) of the same molecule?
A: 20.6 µM

Q: What about the “HCoV-OC43 RNA level in supernatant” value ([3]; 40 µM) of the same molecule?
A: under 20%

Q: And the “HCoV-OC43 RNA level (viral load) in supernatant” value ([3]; 80 µM)?
A: below 5%

Q: And the “toxicity against MRC-5 host cells (in words)” value [4]?
A: no evident toxicity

Q: Which results are given for `CCN(CC)CCCC(C)Nc1ccnc2cc(Cl)ccc12` (stereo not drawn) [Chloroquine, chloroquine]?
A: EC50 ([1]; Betacoronavirus 1, OC43, MRC5, read-out: EC50 (CPE inhibition assay)): 6.22 µM; EC50 [2, 10]: 1.23 µM

Q: With `CC[C@H](C)[C@@H]1NC(=O)[C@@H]2CCCN2C(=O)[C@@H](CC(C)C)OC(=O)CCNC(=O)[C@H](C)N(C)C(=O)[C@H](C(C)C)N(C)C1=O` [Destruxin B, destruxin B] (cyclo([dHica]PI[NMeV][NMeA][βAla])) as the molecule, how does the “antiviral activity … (in words)” value [1] read?
A: did not have an effect

Q: What about the “antiviral activity … (in words)” value ([1]; listed as destruxin B) of the same molecule?
A: non-active

Q: What about the CC50 at 96 h [5, 11] of the same molecule?
A: ~10 µM

Q: With `C=CC[C@H]1OC(=O)CCNC(=O)[C@H](C)N(C)C(=O)[C@H](C(C)C)N(C)C(=O)[C@H]([C@@H](C)CC)NC(=O)[C@@H]2CCCN2C1=O` [Destruxin A, destruxin A] (cyclo([dLac(3-vinyl)]PI[NMeV][NMeA][βAla])) as the molecule, how does the “antiviral activity … (in words)” value [1] read?
A: did not have an effect

Q: What about the “antiviral activity … (in words)” value ([1]; listed as destruxin A) of the same molecule?
A: non-active

Q: What about the CC50 at 96 h [5, 11] of the same molecule?
A: ~10 µM

Q: With `CCCCC/C=C\C/C=C\CCCCCCCC(=O)O` [Linoleic acid, linoleic acid] as the molecule, how does the EC50 [1, 12] read?
A: 25.6 µM

Q: And the “antiviral activity … (in words)” value [1]?
A: showed activity

Q: And the EC50 [2, 13]?
A: 18.3 µM

Q: And the “HCoV-OC43 RNA load in supernatant” value ([3]; 15 µM)?
A: below 50%

Q: What about the “toxicity against MRC-5 host cells (in words)” value [6] of the same molecule?
A: no evident toxicity

Q: And the CC50 at 96 h [7]?
A: > 40 µM

Q: Which selectivity index [1] does the source give for `NC(=O)c1ncn([C@@H]2O[C@H](CO)[C@@H](O)[C@H]2O)n1` [Ribavirin, ribavirin] here?
A: ~8

Q: What about the EC50 [1, 12] of the same molecule?
A: 118 µM

Q: And the “antiviral activity … (in words)” value [1]?
A: showed activity

Q: What about the EC50 [2, 10] of the same molecule?
A: 92.1 µM

Q: And the CC50 at 96 h ([5]; non-infected MRC-5 cells)?
A: > 800 µM

Q: For `COc1c(C)c2c(c(O)c1C/C=C(\C)CCC(=O)OCCN1CCOCC1)C(=O)OC2` [Mycophenolate mofetil, mycophenolate mofetil], which EC50 [1, 12] is on record?
A: 20.7 µM

Q: And the “antiviral activity … (in words)” value [1]?
A: showed activity

Q: What about the EC50 [2, 13] of the same molecule?
A: 1.91 µM

Q: And the “antiviral activity against HCoV-OC43 in a mouse model” value [8]?
A: no antiviral activity

Q: What about the CC50 [7] of the same molecule?
A: > 200 µM

Q: What about the “side effects in vivo” value [9] of the same molecule?
A: severe side effects
